The text below walks through data of patent US12264156B2, “Compounds and pharmaceutical compositions thereof for the treatment of diseases” (GALAPAGOS NV, priority 2018, dated 2025).

The target of one test is T1, SIK1 (Homo sapiens, UniProt P57059).
T1 construct: purchased Carna Biosciences 02-131
Description: ADP-Glo kinase assay, SIK1. Particulars: ADP-Glo SIK kinase assay. The format is biochemical. In a few lines:
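Wells with 1% DMSO or 10 μM staurosporine (final) define the control window. The kinase reaction with substrate and ATP runs 120 min at RT, followed by ADP-Glo detection: ATP depletion (40 min) and ADP-derived luminescence (30 min).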
Background: In ADP-Glo the light output rises with the ADP produced.

The test system of test [1] is LPS-induced TNFα in monocyte-derived macrophages (MdM). Description: MdM assay: LPS-triggered TNFα (ELISA). The format is cell-based, human. Particulars: Homo sapiens, Macrophage, 20 h, monocyte-derived macrophages, LPS 200 ng/mL, supernatant after 20 h; read-out: TNFα EC50. The procedure:
This assay evaluates illustrative compounds of the invention for their inhibition of LPS-induced TNFα and LPS triggered IL-10 secretion in monocyte-derived macrophages.
PBMCs are isolated from human blood samples (buffycoats). The buffy coat is aseptically transferred into a 50 mL Falcon tube, and diluted 1/2 in PBS. Falcon tubes are filled with 20 mL Lymphoprep™, on top of which 25 mL of the buffy coat is carefully added, tubes are centrifuged for 35 min at 400 g in temperature controlled centrifuge, without brake, at 25° C. PBMCs are aspirated from the white interface layer between sample and Lymphoprep™. PBMCs are washed five times in PBS.
(§1) PBMCs are centrifuged at 300×g for 10 min and resuspended at a density of 1.0*10^7 cells/80 μL Miltenyi buffer (PBS, pH 7.4, 1% FBS, 2 mM EDTA).
(§2) Starting from this point of the protocol all steps are performed on ice. 20 μL of CD14+ micro-beads are added per 1.0*10^7 cells, the tube is mixed and incubated for 15 min in the fridge at 4° C. Cell suspension volume is adjusted to total volume of 100 mL using Miltenyi buffer, mixed gently and subsequently centrifuged for 10 min at 300×g. Supernantant is discarded and cell pellet is resuspended in 12 mL of Miltenyi buffer.
(§3) Four LS columns are placed in the MACS Separator (magnet) from Miltenyi Biotec, and are prewet by rinsing with 3 mL of MACS buffer per column. Three mL of cell suspension is added onto the column (max 1*10^8 of labelled cells/column), and columns are subsequently washed 3 times with 3 mL of Miltenyi buffer.
The columns are removed from the magnets, and 5 mL of Miltenyi buffer are added to the column to flush out the CD14+ fraction by pushing the plunger into the column. The flushed fractions are collected in a fresh 50 mL Falcon and volume is adjusted to 30 mL using Miltenyi buffer, cells are centrifuged for 10 min at 300×g. The obtained cell pellet is resuspended in 10 mL RPMI w/o FBS, and cell density is determined using a hematologic analyser (Sysmex XS-500i).
On day 10, MdMs are triggered and compound is added.
(§4) A compound dilution plate is made in 100% DMSO by 3-fold dilution of 10 mM stock solution. An intermediate dilution plate (10× final concentration) is made by diluting the compound dilution plate 50-fold in RPMI medium.
Medium is carefully removed from cell plates using multichannel pipette, and replaced by 80 μL fresh medium. 10 μL of the 10× final concentration compound is added to the cells and incubated for 1 hour at 37° C. before addition of trigger. No trigger conditions/trigger conditions are spiked with equal final DMSO concentrations of 0.2% DMSO. 10 μL of 10×LPS (final conc. 200 ng/mL) solution are added to all wells except for the ‘no trigger wells’ where 10 μL medium is added. Supernatant is collected after 2 h (IL-10 determination) and after 20 h (TNFα determination) of LPS triggering.
The plate is then washed once with PBST (PBS+0.05% Tween20) and once with PBS followed by the addition of 100 μL of blocking buffer (1% Bovine Serum Albumin (BSA)−5% Sucrose) and plates are sealed and incubated for at least 4 h at RT. After washing the plate once with PBST and once with PBS, 40 μL of standard or sample are added (TNFα standard curve is prepared using a 1/2 serial dilution starting from […]; dilutions are made in dilution buffer (PBS+1% BSA)). Plates are washed twice with PBST, and once with PBS, after which 35 μL of the detection antibody is added (final concentration 0.25 μg/mL diluted in dilution buffer) and plates are incubated for at least 2 h at RT. Plates are washed twice with PBST, and once with PBS, where after 35 μL of Strep-HRP conjugate (0.5 μg/mL final concentration diluted in dilution buffer) is added. Plates are incubated in the dark, at RT for at least 45 min but no longer than 1 hour. Plates are washed twice with PBST, and once with PBS.
On the technique in general: In an ELISA, binding on a coated surface is turned into a signal by an enzyme label.

The target of the next test is T2, SIK3 (Homo sapiens, UniProt Q9Y2K2).
T2 construct: purchased SignalChem S12-11G-100
Description: ADP-Glo kinase assay, SIK3. Format: biochemical. Particulars: ADP-Glo SIK kinase assay. The gist of the method: (§5)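 Kinase reactions (enzyme-substrate mix plus ATP) ran 120 min at room temperature for each of SIK3 and SIK2. Signal came from ADP-Glo: unconsumed ATP removed (40 min), ADP reconverted and detected by luciferase/luciferin (30 min), with luminescence tracking kinase activity. 10 μM staurosporine and 1% DMSO (final) served as controls.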

Another test deals with T3, SIK2 (Homo sapiens, UniProt Q9H0K1).
T3 construct: purchased ThermoFisher Scientific PV4792
Description: ADP-Glo kinase assay, SIK2. Format: biochemical. Particulars: ADP-Glo SIK kinase assay. In a few lines: as §5

For test [2], the system named is LPS triggered IL-10 secretion in monocytes. Description: Monocytes assay: LPS-triggered IL-10 (ELISA). Particulars: LPS 200 ng/mL, supernatant after 4 h, maximal fold change vs LPS only. The format is cell-based, human. The procedure:
SIK inhibition inhibits TNFα and increases IL-10 release in LPS triggered monocyte-derived macrophages (MdM) and dendritic cells (MdDCs) (Clark et al. 2012; Sundberg et al. 2014; Ozanne et al. 2015). This assay evaluates illustrative compounds of the invention for their inhibition of LPS-induced TNFα and LPS triggered IL-10 secretion in monocytes.
PBMCs are isolated from human blood samples (buffycoats). The buffy coat is aseptically transferred into a 50 mL Falcon tube, and diluted 1/2 in PBS. Falcon tubes are filled with 20 mL Lymphoprep™, on top of which 25 mL of the buffy coat is carefully added, tubes are centrifuged for 35 min at 400 g in temperature controlled centrifuge, without brake, at 25° C. PBMCs are aspirated from the white interface layer between sample and Lymphoprep™. PBMCs are washed five times in PBS. Cells are resuspended in RPMI 1640 complete medium supplemented with 10% FBS, 1% P/S, and cell density is determined using a hematologic analyzer (Sysmex XS-500i).
as §1, §2, §3
The columns are removed from the magnets, and 5 mL of Miltenyi buffer are added to the column to flush out the CD14+ fraction by pushing the plunger into the column. The flushed fractions are collected in a fresh 50 mL Falcon and volume is adjusted to 30 mL using Miltenyi buffer, cells are centrifuged for 10 min at 300×g. The obtained cell pellet is resuspended in 10 mL RPMI w/o FBS, and cell density is determined using a hematologic analyser (Sysmex XS-500i). 100 000 cells are seeded in 80 μL per well of a 96-well plate in RPMI 1640 medium supplemented with 10% FBS, 1% P/S.
as §4
10 μL of the 10× final concentration compound is added to the cells and incubated for 1 h at 37° C. before addition of trigger. No trigger conditions/trigger conditions are spiked with equal final DMSO concentrations of 0.2% DMSO. 10 μL of 10×LPS (final conc. 200 ng/mL) solution are added to all wells except for the ‘no trigger wells’ where 10 μL medium is added. Supernatant is collected after 4 h of LPS triggering.
A Lumitrac 600 Greiner 384-well plate is coated with 40 μL of capture antibody (final concentration of 1 μg/mL in 1×PBS) and stored overnight at 4° C. The next day the plate is washed three times with PBST (PBS+0.05% Tween20) and once with PBS followed by the addition of 100 μL of blocking buffer (1% BSA−5% Sucrose) and plates are sealed and incubated for at least 4 h at RT. After washing the plate once with PBST and once with PBS, 40 μL of standard or sample are added (IL-10 standard curve is prepared using a 1/2 serial dilution starting from […]; dilutions are made in dilution buffer (PBS+1% BSA)). Plates are washed twice with PBST, and once with PBS, after which 35 μL of the detection antibody is added (final concentration 0.143 μg/mL diluted in dilution buffer) and plates are incubated for at least 2 h at RT. […]

Some results are limits rather than exact numbers.

T1 sequence (P57059 whole entry): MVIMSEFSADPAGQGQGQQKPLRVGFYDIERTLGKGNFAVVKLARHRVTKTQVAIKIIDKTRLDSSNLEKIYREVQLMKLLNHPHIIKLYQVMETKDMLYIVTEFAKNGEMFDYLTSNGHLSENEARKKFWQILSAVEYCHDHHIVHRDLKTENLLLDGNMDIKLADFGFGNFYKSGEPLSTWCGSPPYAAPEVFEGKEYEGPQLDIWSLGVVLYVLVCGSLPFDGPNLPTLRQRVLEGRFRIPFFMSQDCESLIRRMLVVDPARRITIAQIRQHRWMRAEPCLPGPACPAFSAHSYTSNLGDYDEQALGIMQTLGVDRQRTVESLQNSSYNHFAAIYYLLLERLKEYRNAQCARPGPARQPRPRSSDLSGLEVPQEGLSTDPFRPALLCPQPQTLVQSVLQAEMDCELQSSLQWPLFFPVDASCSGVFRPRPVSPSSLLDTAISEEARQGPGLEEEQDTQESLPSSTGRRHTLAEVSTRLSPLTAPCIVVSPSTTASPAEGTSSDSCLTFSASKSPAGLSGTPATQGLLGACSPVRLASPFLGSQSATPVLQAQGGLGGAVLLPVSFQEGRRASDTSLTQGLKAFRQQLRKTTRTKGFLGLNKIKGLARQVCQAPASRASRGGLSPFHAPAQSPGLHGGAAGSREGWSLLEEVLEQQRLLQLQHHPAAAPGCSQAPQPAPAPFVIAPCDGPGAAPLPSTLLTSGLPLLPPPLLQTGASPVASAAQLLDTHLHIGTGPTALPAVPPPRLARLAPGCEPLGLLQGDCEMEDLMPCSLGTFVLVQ
T3 sequence (Q9H0K1 whole entry): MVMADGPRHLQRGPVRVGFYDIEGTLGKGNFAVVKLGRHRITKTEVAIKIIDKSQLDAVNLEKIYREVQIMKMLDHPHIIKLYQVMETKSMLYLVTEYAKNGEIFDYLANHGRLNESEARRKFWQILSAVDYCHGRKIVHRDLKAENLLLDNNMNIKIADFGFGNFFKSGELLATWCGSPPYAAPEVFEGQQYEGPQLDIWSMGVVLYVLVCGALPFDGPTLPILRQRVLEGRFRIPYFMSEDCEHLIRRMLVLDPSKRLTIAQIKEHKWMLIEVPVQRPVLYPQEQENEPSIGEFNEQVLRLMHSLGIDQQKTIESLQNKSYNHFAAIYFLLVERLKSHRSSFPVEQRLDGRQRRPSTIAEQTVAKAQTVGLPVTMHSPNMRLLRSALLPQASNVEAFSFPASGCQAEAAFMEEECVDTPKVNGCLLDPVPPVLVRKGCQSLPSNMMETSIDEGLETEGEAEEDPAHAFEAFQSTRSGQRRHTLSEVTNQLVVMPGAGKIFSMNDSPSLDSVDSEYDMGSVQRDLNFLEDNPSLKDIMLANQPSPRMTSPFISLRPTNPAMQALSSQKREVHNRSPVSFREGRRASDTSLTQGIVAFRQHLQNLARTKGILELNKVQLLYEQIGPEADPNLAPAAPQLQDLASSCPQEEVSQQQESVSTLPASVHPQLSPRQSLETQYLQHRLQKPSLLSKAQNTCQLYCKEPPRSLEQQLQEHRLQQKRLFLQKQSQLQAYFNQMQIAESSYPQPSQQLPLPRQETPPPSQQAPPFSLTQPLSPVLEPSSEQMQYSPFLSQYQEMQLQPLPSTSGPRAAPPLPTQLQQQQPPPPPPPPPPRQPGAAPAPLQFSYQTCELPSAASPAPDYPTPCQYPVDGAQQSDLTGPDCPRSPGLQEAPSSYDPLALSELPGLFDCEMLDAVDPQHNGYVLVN
T2 sequence (Q9Y2K2 whole entry): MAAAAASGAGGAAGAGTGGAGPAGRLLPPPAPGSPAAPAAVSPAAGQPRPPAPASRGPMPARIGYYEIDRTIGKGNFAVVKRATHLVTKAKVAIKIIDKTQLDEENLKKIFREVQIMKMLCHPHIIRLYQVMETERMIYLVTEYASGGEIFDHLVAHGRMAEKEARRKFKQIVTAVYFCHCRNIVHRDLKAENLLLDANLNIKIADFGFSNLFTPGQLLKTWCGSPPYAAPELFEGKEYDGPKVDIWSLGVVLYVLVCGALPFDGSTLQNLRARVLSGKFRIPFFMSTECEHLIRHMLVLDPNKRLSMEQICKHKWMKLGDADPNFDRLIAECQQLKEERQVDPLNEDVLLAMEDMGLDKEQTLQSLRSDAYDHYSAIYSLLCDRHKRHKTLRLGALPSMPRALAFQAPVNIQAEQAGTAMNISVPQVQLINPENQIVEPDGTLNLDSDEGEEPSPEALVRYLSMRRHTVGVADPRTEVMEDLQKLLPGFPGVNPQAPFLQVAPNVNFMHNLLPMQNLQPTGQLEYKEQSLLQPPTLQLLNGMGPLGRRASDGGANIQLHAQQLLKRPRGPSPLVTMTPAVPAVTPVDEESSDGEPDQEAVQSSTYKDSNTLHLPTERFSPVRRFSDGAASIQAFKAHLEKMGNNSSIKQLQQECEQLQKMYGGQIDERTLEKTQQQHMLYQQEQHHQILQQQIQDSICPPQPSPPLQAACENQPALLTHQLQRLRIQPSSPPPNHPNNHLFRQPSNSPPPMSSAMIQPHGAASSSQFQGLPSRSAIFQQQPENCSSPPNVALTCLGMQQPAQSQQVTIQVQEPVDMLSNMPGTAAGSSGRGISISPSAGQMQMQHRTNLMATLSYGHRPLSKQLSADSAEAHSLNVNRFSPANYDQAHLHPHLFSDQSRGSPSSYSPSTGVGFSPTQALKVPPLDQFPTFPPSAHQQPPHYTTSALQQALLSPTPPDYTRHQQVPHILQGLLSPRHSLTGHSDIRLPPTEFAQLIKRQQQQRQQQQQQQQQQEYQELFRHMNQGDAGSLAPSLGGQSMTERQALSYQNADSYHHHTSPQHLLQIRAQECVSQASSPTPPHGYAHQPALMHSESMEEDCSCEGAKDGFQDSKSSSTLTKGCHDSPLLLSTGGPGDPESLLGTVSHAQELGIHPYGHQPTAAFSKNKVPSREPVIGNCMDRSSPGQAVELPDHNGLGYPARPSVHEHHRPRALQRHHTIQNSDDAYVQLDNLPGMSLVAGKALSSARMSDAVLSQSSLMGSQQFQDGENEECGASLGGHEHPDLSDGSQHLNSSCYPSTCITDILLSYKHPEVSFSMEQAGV

With `COc1cc(-c2cnc3cc(OCc4nccn4C)ccn23)cc(OC(F)F)c1C(=O)NC1CC1` [compound 110, N-cyclopropyl-2-(difluoromethoxy)-6-methoxy-4-[7-[(1-methylimidazol-2-yl)methoxy]imidazo[1,2-a]pyridin-3-yl]benzamide], the values for the IC50 on SIK1, against SIK3 and against SIK2 were 100 to 500 nM, 0.01 to 10 nM and 0.01 to 10 nM, respectively. Besides, the EC50 in test [1] lay in the range of 100 to 1000 nM.

With `COc1cc(-c2cnc3cc(OCC(C)N)ccn23)cc(OC(F)F)c1C(=O)NC1CC1` (stereo not shown) [compound 138, 4-[7-(2-aminopropoxy)imidazo [1,2-a]pyridin-3-yl]-N-cyclopropyl-2-(difluoromethoxy)-6-methoxy-benzamide], the IC50 against SIK1 lay within 10 to 100 nM; against SIK3 it was 0.01 to 10 nM; on SIK2, 0.01 to 10 nM. Further, in test [1], the concentration for a half-maximal effect (EC50) fell in the range of 1000 to 5000 nM.

With `COc1cc(-c2cnc3cc(OC[C@@H]4CCCCN4C)ccn23)cc(OC(F)F)c1C(=O)NC1CC1` [compound 139, N-cyclopropyl-2-(difluoromethoxy)-6-methoxy-4-[7-[[(2S)-1-methyl-2-piperidyl]methoxy]imidazo [1,2-a]pyridin-3-yl]benzamide], the IC50 against SIK1 lay within 100 to 500 nM; against SIK3, 0.01 to 10 nM; against SIK2 it was 0.01 to 10 nM. Moreover, the concentration giving a half-maximal response (EC50) in test [1] lay within 100 to 1000 nM.

`CNc1cc(-c2cnc3cc(OCCN(C)C)ccn23)cc(OC(F)F)c1C(=O)NC1CC1` [compound 147, N-cyclopropyl-2-(difluoromethoxy)-4-[7-[2-(dimethylamino)ethoxy]imidazo[1,2-a]pyridin-3-yl]-6-(methylamino)benzamide]: the IC50 on SIK1 fell in the range of 10 to 100 nM; against SIK3, 0.01 to 10 nM; on SIK2, 0.01 to 10 nM. Besides, the half-maximal effective concentration (EC50) in test [1] was 100 to 1000 nM.

For `COCC1CN(CCOc2ccn3c(-c4cc(OC)c(C(=O)NC5CC5)c(OC(F)F)c4)cnc3c2)CCO1` (stereo not shown) [compound 158, N-cyclopropyl-2-(difluoromethoxy)-6-methoxy-4-[7-[2-[2-(methoxymethyl)morpholin-4-yl]ethoxy]imidazo[1,2-a]pyridin-3-yl]benzamide], the 50% inhibitory concentration (IC50) at SIK1 lay in the range of 10 to 100 nM; against SIK3 it was 0.01 to 10 nM; at SIK2, 0.01 to 10 nM. Also, the half-maximal effective concentration (EC50) in test [1] was in the range of 0.1 to 100 nM.

`COc1cc(-c2cnc3cc(OCC4(C)CCCN4)ccn23)cc(OC(F)F)c1C(=O)NC1CC1` (stereo not shown) [compound 168, N-cyclopropyl-2-(difluoromethoxy)-6-methoxy-4-[7-[(2-methylpyrrolidin-2-yl)methoxy]imidazo[1,2-a]pyridin-3-yl]benzamide]: the IC50 on SIK1 fell in the range of 100 to 500 nM; against SIK3 it was 0.01 to 10 nM; against SIK2, 0.01 to 10 nM. Also, in test [1], the concentration giving a half-maximal response (EC50) lay in the range of 100 to 1000 nM.

`COc1cc(-c2cnc3cc(OCC4(C)CCCCN4)ccn23)cc(OC(F)F)c1C(=O)NC1CC1` (stereo not shown) [compound 172, N-cyclopropyl-2-(difluoromethoxy)-6-methoxy-4-[7-[(2-methyl-2-piperidyl)methoxy]imidazo[1,2-a]pyridin-3-yl]benzamide]: the half-maximal inhibitory concentration (IC50) was in the range of 100 to 500 nM against SIK1, 0.01 to 10 nM against SIK3 and 0.01 to 10 nM against SIK2. For the same compound, in test [1], the 50% effective concentration (EC50) lay within 1000 to 5000 nM.

Take `COc1cc(-c2cnc3cc(OCCN4CCOCC4)ccn23)cc(OC(F)F)c1C(=O)NCC(F)(F)F` [compound 230, 2-(difluoromethoxy)-6-methoxy-4-[7-(2-morpholinoethoxy)imidazo [1,2-a]pyridin-3-yl]-N-(2,2,2-trifluoroethyl)benzamide]: the 50% inhibitory concentration (IC50) against SIK1 fell in the range of 10 to 100 nM; against SIK3, 0.01 to 10 nM; against SIK2, 0.01 to 10 nM. The concentration giving a half-maximal response (EC50) in test [1] is 100 to 1000 nM.

Consider `COc1cc(-c2cnc3cc(OCCN4C[C@@H]5C[C@H]4CO5)ccn23)cc2c1C(=O)N(CC(F)(F)F)CC2` [compound 245, 8-methoxy-6-[7-[2-[(1S,4S)-2-oxa-5-azabicyclo[2.2.1]heptan-5-yl]ethoxy]imidazo[1,2-a]pyridin-3-yl]-2-(2,2,2-trifluoroethyl)-3,4-dihydro isoquinolin-1-one], for which the half-inhibitory concentration (IC50) was > 500 nM against SIK1, 0.01 to 10 nM at SIK3 and 0.01 to 10 nM against SIK2. In addition, the “IL-10 FCmax median” value in test [2] is recorded as “+++ (>4.5)”. For the same compound, the EC50 in test [1] was in the range of 100 to 1000 nM.

Usually IC50 stands for the concentration that gives 50% inhibition. Read a low IC50 as higher potency. One may read the EC50 as the concentration that produces a half-maximal response.
